# Columns and labels:
# E. coli 7MP = experiment: Antibacterial activity (MIC), agar dilution per CLSI; format: cell-based; conditions: Escherichia coli
# Experimental: (§1) The biological activity of representative compounds according to the invention against various bacterial strains was investigated. In a typical study, overnight grown bacterial cultures were diluted appropriately and inoculated on the agar media containing doubling dilutions of the test compounds. Observation for growth or no growth was performed after 16-20 hours of incubation at 35±2° C. in ambient air. The overall procedure was performed as per Clinical and Laboratory Standards Institute (CLSI) recommendations (Clinical and Laboratory Standards Institute (CLSI), Performance Standards for Antimicrobial Susceptibility Testing, 20th Informational Supplement, M 100-S20, Volume 30, No. 1, 2010).
# K. pneumoniae H525 = experiment: as above; format: cell-based; conditions: Klebsiella pneumoniae
# Experimental: as §1
# E. coli M 50 = experiment: as above; format: cell-based; conditions: Escherichia coli, M50
# Experimental: as §1
# E. coli M 138 = experiment: as above; format: cell-based; conditions: Escherichia coli, M138
# Experimental: as §1
# E. coli 13352 = experiment: as above; format: cell-based; conditions: Escherichia coli
# Experimental: as §1
# [1] = system: K. pneumoniae ATCC 700603; experiment: as above; format: cell-based; conditions: Klebsiella pneumoniae, ATCC700603
# Experimental: as §1
# K. pneumoniae H522 = experiment: as above; format: cell-based; conditions: Klebsiella pneumoniae
# Experimental: as §1
# K. pneumoniae H521 = experiment: as above; format: cell-based; conditions: Klebsiella pneumoniae
# Experimental: as §1
# E. coli M 49 = experiment: as above; format: cell-based; conditions: Escherichia coli, M49
# Experimental: as §1
# E. coli 13351 = experiment: as above; format: cell-based; conditions: Escherichia coli
# Experimental: as §1
# E. coli 13353 = experiment: as above; format: cell-based; conditions: Escherichia coli
# Experimental: as §1
# E. coli M 36 = experiment: as above; format: cell-based; conditions: Escherichia coli, M36
# Experimental: as §1
# K. pneumoniae H523 = experiment: as above; format: cell-based; conditions: Klebsiella pneumoniae
# Experimental: as §1
# [2] = system: E. coli strain M50 (CMY, DHA); experiment: Time-dependent bacterial kill study; format: cell-based; conditions: initial count 7.18 log10 CFU/ml
# Experimental: In these studies, the initial bacterial count (at 0 hours) was 7.18 log10 CFU/ml. In general, 1, 2 and 3 log bacterial kill over initial count corresponds to […] bactericidal effect. In a typical time-dependent bacterial kill studies, freshly grown bacterial cultures were diluted to target cell density (initial starting inoculum) in Cation adjusted Muller Hinton broth medium (BD, USA). The antibacterial agents (either alone or in combination) at the required concentrations were added into the culture-containing medium. The sample flasks were incubated under shaking condition (120 rpm) at 37° C. Enumeration of viable bacterial count was undertaken periodically by diluting the sample in normal saline and plating on to the Tryptic Soya Agar plates (BD, USA). The plates were incubated for 24 hours to estimate viable bacterial count. The results are expressed in terms of Log10 CFU per ml.
# [3] = 2 hours, antibacterial agent alone 8 μg/ml
# [4] = 4 hours, antibacterial agent alone 8 μg/ml
# [5] = 6 hours, antibacterial agent alone 8 μg/ml
# [6] = 8 hours, antibacterial agent alone 8 μg/ml
structure (smiles),measurement,setting,value
"O=C(NOC[C@@H]1C[C@@H](F)CN1)[C@@H]1CC[C@@H]2CN1C(=O)N2OS(=O)(=O)O [Example 2, (2S, 5R)-N-{[(2S, 4R)-4-fluoropyrrolidin-2-yl]methyloxy}-7-oxo-6-(sulfooxy)-1,6-diazabicyclo[3.2.1]octane-2-carboxamide]",MIC,E. coli 7MP,2 mg/L
same,MIC,K. pneumoniae H525,4 mg/L
same,MIC,E. coli M 50,2 mg/L
same,MIC,E. coli M 138,2 mg/L
same,MIC,E. coli 13352,2 mg/L
same,MIC,[1],> 32 mg/L
same,MIC,K. pneumoniae H522,4 mg/L
same,MIC,K. pneumoniae H521,4 mg/L
same,MIC,E. coli M 49,4 mg/L
same,MIC,E. coli 13351,1 mg/L
same,MIC,E. coli 13353,1 mg/L
same,MIC,E. coli M 36,1 mg/L
same,MIC,K. pneumoniae H523,4 mg/L
same,melting point,,160 to 163 °C (dec.)
C=CC1=C(C(=O)O)N2C(=O)[C@@H](NC(=O)/C(=N\OCC(=O)O)c3csc(N)n3)[C@H]2SC1 [Cefixime],Bacterial count,[2]; [3],7.85 Log10 CFU per ml
same,Bacterial count,[2]; [4],8.90 Log10 CFU per ml
same,Bacterial count,[2]; [5],8.78 Log10 CFU per ml
same,Bacterial count,[2]; [6],9.04 Log10 CFU per ml
"O=C(NOC[C@@H]1C[C@H](F)CN1)[C@@H]1CC[C@@H]2CN1C(=O)N2OS(=O)(=O)O [Example 1, (2S, 5R)-N-{[(2S, 4S)-4-fluoropyrrolidin-2-yl]methyloxy}-7-oxo-6-(sulfooxy)-1,6-diazabicyclo[3.2.1]octane-2-carboxamide]",MIC,E. coli 7MP,1 mg/L
same,MIC,K. pneumoniae H525,0.5 mg/L
same,MIC,E. coli M 50,0.5 mg/L
same,MIC,E. coli M 138,0.5 mg/L
same,MIC,E. coli 13352,1 mg/L
same,MIC,[1],> 32 mg/L
same,MIC,K. pneumoniae H522,1 mg/L
same,MIC,K. pneumoniae H521,1 mg/L
same,MIC,E. coli M 49,4 mg/L
same,MIC,E. coli 13351,0.5 mg/L
same,MIC,E. coli 13353,0.5 mg/L
same,MIC,E. coli M 36,0.25 mg/L
same,MIC,K. pneumoniae H523,1 mg/L
same,Bacterial count,"[2]; 2 hours, Compound of Formula (Ia) alone 4 μg/ml",7.78 Log10 CFU per ml
same,Bacterial count,"[2]; 4 hours, Compound of Formula (Ia) alone 4 μg/ml",6.74 Log10 CFU per ml
same,Bacterial count,"[2]; 6 hours, Compound of Formula (Ia) alone 4 μg/ml",5.85 Log10 CFU per ml
same,Bacterial count,"[2]; 8 hours, Compound of Formula (Ia) alone 4 μg/ml",6.13 Log10 CFU per ml
same,melting point,,180 to 183 °C (dec.)
COCC1=C(C(=O)O)N2C(=O)[C@@H](NC(=O)/C(=N\OC)c3csc(N)n3)[C@H]2SC1 [Cefpodoxime],Bacterial count,[2]; [3],7.95 Log10 CFU per ml
same,Bacterial count,[2]; [4],8.70 Log10 CFU per ml
same,Bacterial count,[2]; [5],8.95 Log10 CFU per ml
same,Bacterial count,[2]; [6],9.30 Log10 CFU per ml
"O=C(NOC[C@H]1C[C@H](F)CN1)[C@@H]1CC[C@@H]2CN1C(=O)N2OS(=O)(=O)O [Example 3, (2S, 5R)-N-{[(2R, 4S)-4-fluoropyrrolidin-2-yl]methyloxy}-7-oxo-6-(sulfooxy)-1,6-diazabicyclo[3.2.1]octane-2-carboxamide]",MIC,E. coli 7MP,2 mg/L
same,MIC,K. pneumoniae H525,2 mg/L
same,MIC,E. coli M 50,1 mg/L
same,MIC,E. coli M 138,1 mg/L
same,MIC,E. coli 13352,2 mg/L
same,MIC,[1],> 32 mg/L
same,MIC,K. pneumoniae H522,2 mg/L
same,MIC,K. pneumoniae H521,2 mg/L
same,MIC,E. coli M 49,4 mg/L
same,MIC,E. coli 13351,1 mg/L
same,MIC,E. coli 13353,1 mg/L
same,MIC,E. coli M 36,1 mg/L
same,MIC,K. pneumoniae H523,2 mg/L
same,melting point,,175 to 178 °C (dec.)
Nc1nc(/C(=C/CC(=O)O)C(=O)N[C@@H]2C(=O)N3C(C(=O)O)=CCS[C@H]23)cs1 [Ceftibuten],Bacterial count,[2]; [3],7.98 Log10 CFU per ml
same,Bacterial count,[2]; [4],8.30 Log10 CFU per ml
same,Bacterial count,[2]; [5],8.74 Log10 CFU per ml
same,Bacterial count,[2]; [6],9.48 Log10 CFU per ml
"O=C(NOC[C@H]1C[C@@H](F)CN1)[C@@H]1CC[C@@H]2CN1C(=O)N2OS(=O)(=O)O [Example 4, (2S, 5R)-N-{[(2R, 4R)-4-fluoropyrrolidin-2-yl]methyloxy}-7-oxo-6-(sulfooxy)-1,6-diazabicyclo[3.2.1]octane-2-carboxamide]",MIC,E. coli 7MP,4 mg/L
same,MIC,K. pneumoniae H525,2 mg/L
same,MIC,E. coli M 50,2 mg/L
same,MIC,E. coli M 138,2 mg/L
same,MIC,E. coli 13352,4 mg/L
same,MIC,[1],> 32 mg/L
same,MIC,K. pneumoniae H522,4 mg/L
same,MIC,K. pneumoniae H521,4 mg/L
same,MIC,E. coli M 49,4 mg/L
same,MIC,E. coli 13351,2 mg/L
same,MIC,E. coli 13353,1 mg/L
same,MIC,E. coli M 36,1 mg/L
same,MIC,K. pneumoniae H523,4 mg/L
same,melting point,,207 to 209 °C (dec.)
CC(C)(O/N=C(\C(=O)N[C@@H]1C(=O)N2C(C(=O)[O-])=C(C[n+]3ccccc3)CS[C@H]12)c1csc(N)n1)C(=O)O [Ceftazidime],Bacterial count,[2]; [3],7.81 Log10 CFU per ml
same,Bacterial count,[2]; [4],8.90 Log10 CFU per ml
same,Bacterial count,[2]; [5],9.0 Log10 CFU per ml
same,Bacterial count,[2]; [6],8.92 Log10 CFU per ml
CO/N=C(\C(=O)N[C@@H]1C(=O)N2C(C(=O)[O-])=C(C[N+]3(C)CCCC3)CS[C@H]12)c1csc(N)n1 [Cefepime],Bacterial count,[2]; [3],7.85 Log10 CFU per ml
same,Bacterial count,[2]; [4],8.65 Log10 CFU per ml
same,Bacterial count,[2]; [5],8.90 Log10 CFU per ml
same,Bacterial count,[2]; [6],9.0 Log10 CFU per ml

# Source: patent publication US10500195B2, “Antibacterial compounds” (WOCKHARDT LIMITED, priority 2017, dated 2019)
